# From patent US12570694B2, “Peptides and pharmaceutical, nutraceutical or veterinary compositions for hair loss prevention and/or treatment” (VYTRUS BIOTECH, S.L., priority 2016, dated 2026)
# Key:
# [1] = tested on: human dermal fibroblasts (HDF); assay: Wound healing (scratch) assay on human dermal fibroblasts; type: cell-based; settings: FIG. 17; 5 μg/ml and 0.05 μg/ml; 5 days of treatment; triplicate mean; vs 0.1% FBS basal, 10% FBS and TGF-β1 positive controls
# Procedure: In order to test the effect of the sulfaction state of the peptides on their activity, it is herewith provided as reference example a wound healing assay conducted onto human dermal fibroblasts (HDF).
# Human dermal fibroblasts were seeded in a 24-well plate and were grown to confluence. A 2 mm width scratch was done on the culture monolayer. Then the test products in culture medium were added and the cicatrisation process was followed by means of phase contrast microscopy. With this aim, photographs were taken at initial of the test (T=0 h) before the scratching and after the treatment (at 12 h and at 72 h). Cicatrisation process was evaluated by quantifying wound area reduction at each time.
# Data at the end of the test (5 days of treatment) are depicted in FIG. 17, wherein the wound healing potential is depicted as the Healed Area (in μm^2) for assayed peptide.
# The results derive from a triplicate test. Values of cicatrised area (or % of cicatrisation) are the mean values.
# [2] = tested on: human hair follicle papilla cells (HFDPC); assay: In vitro proliferation of hair follicle dermal papilla cells (BrdU incorporation); type: cell-based
# Procedure: In order to test the effects of the cell-free supernatants, as well as of the peptides of the invention, a proliferation assay was conducted onto human hair follicle papilla cells (CELL APPLICATIONS, INC; Normal human hair follicles from temporal scalp. Single donor: Ref. 602-05a. Lot. 2092.).
# The culture media was a Papilla Cell Basal Medium supplemented with the Growth Supplements kit (Relative composition: Fetal bovine serum, growth factors and antibiotics. Application: 6% v/v).
# HFDPC proliferation was assessed determining the proliferation index (%). Cell DNA replication was quantified by means of incorporated bromodeoxiuridine (BrdU) into DNA of treated cells. BrdU assay allows measuring cell proliferation based on cell capability of incorporating BrdU during S-phase of the cell cycle. Cells being divided incorporated BrdU that is further detected by means of antibodies and immunocytochemistry detection.
# Cells were seeded at confluence in a 96-well plate. After stabilization and synchronization of cell cultures the tested products were added (at the final concentration indicated in Table 1 of Examples. After that, BrdU was added to cultures and HFDPC were incubated at 37° C. until complete BrdU incorporation. BrdU amounts were proportional to the number of cell divisions and thus to the growth of the treated culture.
# Data are depicted in FIG. 1, FIG. 2 and FIG. 3, wherein it is shown the proliferation index (%) of HFDPC, calculated as the percentage of growing in relation to the basal control (non-treated HFDPC) which is accorded a 100% value of proliferation index.
substance,measurement,setting,value
"CH3—C(O)—YIYT-NH2 (Ac-YIYT-NH2) [SEQ ID NO: 6, in vivo: dissolved 0.025% w/w in PBS buffered fortifying solution 2×]","wound healing potential, Healed Area",[1],independent of its sulfaction state
same,proliferation index of HFDPC,"[2]; FIG. 1, relative to basal control (non-treated HFDPC) = 100%, concentrations C1/C2 of Table 1",showed the best results
same,proliferation index of HFDPC,"[2]; FIGS. 2 and 3, peptides with or without end-terminal modifications at 5.86, 2.93, 1.46 μg/ml, basal control = 100%",can promote cell proliferation
